Test system: DDR2
Assay: Phosphorylation level of DDR2 (Western Blot)
Type: cell-based, human
Settings: MRC-5, TGF-β1 treatment
Protocol: 1) Preparation of cell protein samples: the cell culture liquid was discarded, wash was performed once with PBS, and samples were collected by adding 1×SDS-Loading. after the samples were collected, they were placed in a metal bath at 100° C., and the samples were boiled for 10 minutes, and then the samples were stored at 4° C. for waiting for subsequent test.
2) Gel preparation and sample loading: according to the molecular weight of the detected protein, different concentrations of separation gel were selected. after filling the 1× electrophoresis buffer, an equal volume of protein sample 4 μl and protein marker were added on the far left to right in sequence.
When the sample was in the concentrated gel, the voltage was set to 80 V; when the sample was electrophoresed to the separation gel, the voltage was increased to 120 V until the bromophenol blue was electrophoresed to reach the bottom of the gel, and the electrophoresis ended. […]
8) Secondary antibodies: the film with the primary antibodies was rewarmed and incubated for about half an hour, and then the primary antibodies were recovered and the film was washed quickly with TBST solution 3 times, 10 minutes each time. […] The dilution ratio of the secondary antibody dedicated for DDR2 was 1:5000; The dilution ratio for the rest of the secondary antibodies were 1:8000, ready for use. […]

In the case of `O=C(Nc1cccc(C(F)(F)F)c1)c1ccc(C2CC2)c(-c2ccc3nc(Nc4cnn(C5CC5)c4)ncc3c2)c1` [Compound S15, 4-cyclopropyl-3-(2-((1-cyclopropyl-1H-pyrazol-4-yl)amino)quinazolin-6-yl)-N-(3-(trifluoromethyl)phenyl)benzamide], the “phosphorylation level of DDR2” value is reported as “effectively inhibit the phosphorylation level of DDR2”.

Source: US11655239B2 (SHANGHAI INSTITUTE OF MATERIAL MEDICA, CHINESE ACADEMY OF …, priority 2019, dated 2023)
